Source: patent publication US20210220331A1, “INHIBITORS OF IRES-MEDIATED PROTEIN SYNTHESIS” (The Regents of the University of California, priority 2016, published 2021)

System: human p27Kip1 IRES
Test: Dicistronic IRES mRNA reporter assay, p27Kip1 IRES
Assay type: cell-based
Conditions: LN229 cells
Description: Western blot and quantitative RT-PCR analyses were performed as previously described (19). For Western blotting, cells or tissues were lysed in RIPA (lysis) buffer containing protease inhibitor cocktail and phosSTOP phosphatase inhibitor cocktail (Roche) and extracts resolved by SDSPAGE. Proteins were transferred to PVDF membranes and incubated with the indicated antibodies. For IRES reporter assays, the indicated mRNA reporters were cotransfected into cells with pSVβ-galactosidase to normalize for transfection efficiency as described previously (16). Cells were harvested 18 h following transfection and Renilla, firefly and β-galactosidase activities determined using the Dual-Glo Luciferase and β-galactosidase assay systems (Promega).
(B) Schematic diagrams of the dicistronic constructs used in this study. […] Input and bound fractions were analyzed by immunoblotting using hnRNP A1 antibodies. […] Bound CCND1 or c-MYC RNAs were detected via RT-PCR. […]
Several dicistronic IRES mRNA reporter constructs were utilized, shown in FIG. 1B, in which the indicated IRES sequences were inserted within the intercistronic region. LN229 cells transiently transfected with these constructs were assayed for Renilla and firefly luciferase activities, which are readouts of cap-dependent and IRES-mediated translation initiation, respectively (16).

## COc1ccc(CN2C(=O)C(Cl)=C(Cl)C2=O)c(OC)c1 [Compound C11, reference compound]
  IRES-mediated initiation from p27Kip1 IRES: did not affect
